Assay results as given in patent US10501575B2, “Biomimetic fluoroscopic films” (THE BOARD OF REGENTS OF THE UNIVERSITY OF TEXAS SYSTEM, priority 2015, dated 2019).

What was measured:
IL-1β = test: Anti-inflammatory effect, IL-1β ELISA in LPS stimulated RAW 264.7 cells; format: cell-based, mouse; conditions: for Cytokine Concentration IL-1β: LPS, 24 h
Excerpt: (§1) Therapeutic effect. […] PTNP concentrations were compared to free dexamethasone in media, which simulates systemic delivery. The experimental design included the expected concentrations of dexamethasone released from PTNP groups.

TNF-α = test: Anti-inflammatory effect, TNF-α ELISA in LPS stimulated RAW 264.7 cells; format: cell-based, mouse; conditions: for Cytokine Concentration TNF-α: LPS, 24 h
Excerpt: as §1

## C[C@@H]1C[C@H]2[C@@H]3CCC4=CC(=O)C=C[C@]4(C)[C@@]3(F)[C@@H](O)C[C@]2(C)[C@@]1(O)C(=O)CO [Free DEX, dexamethasone]
IL-1β; ELISA
  concentration required to maintain IL-1β control concentration levels in the presence of stimuli: 0.23 mg/mL
IL-1β; Free DEX 0.10 mg/mL
  Cytokine Concentration IL-1β: 1009 ± 7 pg/mL
IL-1β; Free DEX 0.50 mg/mL
  Cytokine Concentration IL-1β: 759 ± 7 pg/mL
IL-1β; Free DEX 1.00 mg/mL
  Cytokine Concentration IL-1β: 491 ± 2 pg/mL
IL-1β; Free DEX 2.00 mg/mL
  Cytokine Concentration IL-1β: 489 ± 4 pg/mL
TNF-α; ELISA
  concentration required to maintain TNF-α control concentration levels in the presence of stimuli: 0.23 mg/mL
TNF-α; Free DEX 0.10 mg/mL
  Cytokine Concentration TNF-α: 78 ± 3 pg/mL
TNF-α; Free DEX 0.50 mg/mL
  Cytokine Concentration TNF-α: 66 ± 3 pg/mL
TNF-α; Free DEX 1.00 mg/mL
  Cytokine Concentration TNF-α: 50 ± 3 pg/mL
TNF-α; Free DEX 2.00 mg/mL
  Cytokine Concentration TNF-α: 35 ± 6 pg/mL
TNF-α; free dexamethasone 0.10-0.50 mg/mL
  TNF-α versus control: lowered TNF-α but not enough to be comparable to the control
TNF-α; free dexamethasone in media 1 and 2 mg/mL
  TNF-α concentrations versus control: lowered TNF-α concentrations to control levels
